Data taken from ChEMBL document CHEMBL4706660, “Structure-Activity Relationship and Biological Investigation of SR18292 (16), a Suppressor of Glucagon-Induced Glucose Production” (J Med Chem, 2021).
Active and inactive are the calls of the source. The rule behind the calls is not given here.

What was measured:
[1] = Inhibition of NE-induced lipolysis in adipocytes (unknown origin) assessed as reduction in glycerol release at 1 uM pre-incubated for 30 mins before NE stimulation for 90 mins by glycerol reagent based assay relative to control; type: functional, Adipocyte; settings: 2 h
[2] = Inhibition of glucagon-induced glucose secretion in C57BL/6 mouse primary hepatocytes at 1 uM; type: functional; settings: C57BL/6, Hepatocyte
[3] = test system: Mus musculus; test: In-vivo antagonist activity at beta-adrenergic receptor in fasted ob/ob mouse assessed as increase in accumulation of liver glycogen at 25 mg/kg; type: functional, organism-based
[4] = test system: Mus musculus; test: Suppression of fasting blood glucose in overnight fasted ob/ob mouse 25 mg/kg, ip dosed 3 times and measured 3 hrs after last dose; type: functional, organism-based
[5] = test system: Adipocyte; test: Inhibition of NE-induced lipolysis in adipocytes (unknown origin) assessed as reduction in glycerol release at 1 to 10000 nM pre-incubated for 30 mins before NE stimulation for 90 mins by glycerol reagent based assay relative to control; type: functional, cell-based; settings: dose 1-10000 nM, time 120.0 min
[6] = test system: Mus musculus; test: In-vivo antagonist activity at beta-adrenergic receptor in fasted ob/ob mouse assessed as inhibition of hormone-sensitive lipase phosphorylation in brown adipose tissue at 25 mg/kg
[7] = test system: Mus musculus; test: In-vivo antagonist activity at beta-adrenergic receptor in fasted and HFD fed mouse assessed as increase in accumulation of liver glycogen at 50 mg/kg; type: functional, organism-based
[8] = test system: Mus musculus; test: In-vivo antagonist activity at beta-adrenergic receptor in fasted and HFD fed mouse assessed as inhibition of hormone-sensitive lipase phosphorylation in epididymal white adipose tissue at 50 mg/kg; type: functional, organism-based
[9] = molecular target: T1, 5-hydroxytryptamine receptor 1A (Homo sapiens, UniProt P08908); test: Binding affinity to 5HT1A receptor (unknown origin)
T1 sequence (P08908 whole entry): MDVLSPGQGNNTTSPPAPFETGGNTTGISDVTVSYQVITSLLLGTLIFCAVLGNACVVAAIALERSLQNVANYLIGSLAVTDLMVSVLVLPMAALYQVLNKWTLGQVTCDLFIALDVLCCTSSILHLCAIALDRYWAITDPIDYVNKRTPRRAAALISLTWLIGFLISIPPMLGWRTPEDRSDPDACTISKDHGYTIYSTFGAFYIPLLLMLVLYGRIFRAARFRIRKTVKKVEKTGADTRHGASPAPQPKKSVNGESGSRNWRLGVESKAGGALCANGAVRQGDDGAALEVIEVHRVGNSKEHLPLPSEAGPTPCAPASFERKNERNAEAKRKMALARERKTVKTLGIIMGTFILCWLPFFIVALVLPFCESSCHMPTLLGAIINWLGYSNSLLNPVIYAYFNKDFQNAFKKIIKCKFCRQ

[10] = molecular target: Beta-2 adrenergic receptor (Homo sapiens, UniProt P07550); test: Binding affinity to beta2 adrenoceptor (unknown origin)
Beta-2 adrenergic receptor, sequence (P07550 whole entry): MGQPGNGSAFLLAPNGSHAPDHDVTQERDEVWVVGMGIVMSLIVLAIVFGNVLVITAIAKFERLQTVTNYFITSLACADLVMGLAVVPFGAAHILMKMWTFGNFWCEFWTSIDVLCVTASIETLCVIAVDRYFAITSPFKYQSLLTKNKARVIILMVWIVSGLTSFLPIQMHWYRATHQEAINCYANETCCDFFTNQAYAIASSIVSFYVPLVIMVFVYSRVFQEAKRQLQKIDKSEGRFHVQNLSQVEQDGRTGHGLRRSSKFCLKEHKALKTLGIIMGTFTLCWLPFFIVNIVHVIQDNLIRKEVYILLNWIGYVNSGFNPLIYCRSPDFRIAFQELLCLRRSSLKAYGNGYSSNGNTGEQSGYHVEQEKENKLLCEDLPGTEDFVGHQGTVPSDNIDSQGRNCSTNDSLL

Row | Compound | inhibition ([1]; read-out: INH) [%] | inhibition at 1 µM [2] [%] | other results
1 | CC(C)(C)N(CC(O)COc1cccc2[nH]ccc12)CC1CCCC1 (stereo unspecified) | 51.3 | 48.5 | –
2 | Cc1ccc(CN(CC(O)COc2cccc(C)c2)C(C)(C)C)cc1 (stereo unspecified) | 13.1 | 31.5 | –
3 | COC(COc1cccc2[nH]ccc12)CN(CC1CCCC1)C(C)(C)C (stereo unspecified) | 1 | 66.4 | –
4 | CC(C)(C)N(Cc1ccc(C#N)cc1)CC(O)COc1cccc2[nH]ccc12 (stereo unspecified) | 53.7 | 49.3 | –
5 | CC(C)NCC(O)COc1cccc2ccccc12 (stereo unspecified) [PROPRANOLOL] | – | – | inhibition [1]: 92.4%
6 | Cc1ccc(CN(CC(O)CNc2cccc3cc[nH]c23)C(C)(C)C)cc1 (stereo unspecified) | 13.2 | 35.1 | –
7 | Cc1cccc(CN(CC(O)COc2cccc3[nH]ccc23)C(C)(C)C)c1 (stereo unspecified) | 40.4 | 62.6 | –
8 | CC(C)(C)c1ccc(CN(CC(O)COc2cccc3[nH]ccc23)C(C)(C)C)cc1 (stereo unspecified) | 11.3 | 47.3 | Activity [3]: inactive; Activity [4]: Active; inhibition [5]: inactive; Activity [6]: inactive
9 | CN(C)c1ccc(CN(CC(O)COc2cccc3[nH]ccc23)C(C)(C)C)cc1 (stereo unspecified) | 65.2 | 35.3 | –
10 | COc1ccc(CN(CC(O)COc2cccc3[nH]ccc23)C(C)(C)C)cc1 (stereo unspecified) | 58.3 | 30.1 | –
11 | Cc1ccc(CN(CC(O)COc2cccc3c2ccn3C)C(C)(C)C)cc1 (stereo unspecified) | 36.7 | 47.7 | –
12 | Cc1ccc(CN(CC(O)COc2ccc3[nH]ccc3c2)C(C)(C)C)cc1 (stereo unspecified) | 48.5 | 50.7 | –
13 | Cc1ccc(CN(CC(O)COc2cccc3[nH]ccc23)C(C)(C)C)cc1 (stereo unspecified) | 25.8 | 57.7 | Activity [7]: inactive; Activity [8]: inactive; Activity [3]: inactive; Activity [4]: Active; Activity [6]: inactive; Ki [9]: 2.1 µM; Ki [10]: 1.3 µM
14 | COC(COc1cccc2[nH]ccc12)CN(Cc1ccccc1C)C(C)(C)C (stereo unspecified) | 14.6 | 22.7 | –
15 | CC(C)(C)NCC(O)COc1cccc2[nH]ccc12 (stereo unspecified) | 73.2 | 53 | –
16 | COC(COc1cccc2[nH]ccc12)CN(Cc1ccc(C)cc1)C(C)(C)C (stereo unspecified) | -8.5 | 135 | –
17 | Cc1ccc(CN(CC(O)COc2ccccc2)C(C)(C)C)cc1 (stereo unspecified) | 21.7 | 32.3 | –
18 | COC(COc1cccc2c1ccn2C)CN(Cc1ccc(C)cc1)C(C)(C)C (stereo unspecified) | 3.22 | 56.8 | –
19 | Cc1ccc(CN(CC(O)COc2cccc3ccccc23)C(C)(C)C)cc1 (stereo unspecified) | 10.4 | -2.73 | –
20 | Cc1ccc(CN(CC(O)CNc2ccc3[nH]ccc3c2)C(C)(C)C)cc1 (stereo unspecified) | 2.24 | 28.2 | –
21 | Cc1ccc(CN(CC(O)COc2cccc3[nH]ccc23)C2CC2)cc1 (stereo unspecified) | 11.6 | 37.8 | –
22 | Cc1ccc(CN(CC(O)COc2cccc3[nH]ccc23)C(C)C)cc1 (stereo unspecified) | 51.6 | 59.5 | –
23 | Cc1ccccc1CN(CC(O)COc1cccc2[nH]ccc12)C(C)(C)C (stereo unspecified) | 35.6 | 46 | –
24 | CC(=O)Nc1cccc(OCC(O)CN(Cc2ccc(C)cc2)C(C)(C)C)c1 (stereo unspecified) | 12.3 | 35.9 | –
25 | Cc1ccc(CN(CCCOc2cccc3[nH]ccc23)C(C)(C)C)cc1 | 9.91 | 28.3 | –
26 | CC(C)(C)N(Cc1ccc(F)cc1)CC(O)COc1cccc2[nH]ccc12 (stereo unspecified) | 55.3 | 52.2 | –
27 | Cc1ccc(CN(CC(O)COc2ccncc2)C(C)(C)C)cc1 (stereo unspecified) | 31.5 | 41.4 | –
28 | Cc1ccc(CNCC(O)COc2cccc3[nH]ccc23)cc1 (stereo unspecified) | 40.6 | 34.5 | –
